Patent US20030050193A1, “Herbicide combinations comprising specific sulfonylureas” (priority 2001, published 2003)

Legend:
Format in all cases: in vivo
[1] = system: Wheat; assay: Crop damage in greenhouse trials, visual scoring; conditions: scored approx. 4-6 weeks after application
Experimental: (§1) Herbicidal Action (Greenhouse Trials)
(§2) The seeds or rhizome pieces of typical harmful plants were placed into sandy loam soil in round pots, size 13, covered with soil and grown in a greenhouse under good growth conditions. After the harmful plants had emerged, they were treated, as a rule at the 2- to 3-leaf stage, with various dosages of the compositions according to the invention at a water application rate of 100 to 400 l/ha (converted),
(§3) After the treatment (approx. 4-6 weeks after application), the herbidical activity of the active compounds or active compound mixtures was scored visually by comparing the treated plots with the untreated controls. Damage and development of all above-ground parts of the plants was recorded. Scoring was done on a percentage scale (100% action=all plants dead; 50% action=50% of the plants and green plant parts dead; 0% action=no discernible action),
(§4) The results are listed in the tables below, where the activity measured for the independent use of the active compounds (A) and (B) is stated in brackets, […]

[2] = system: Veronica hederifolia; assay: Herbicidal action (greenhouse trials), post-emergence, visual scoring; conditions: Example 2; application rate g of al/ha: amidosulfuron 8, cinidon-ethyl 13, A + B 8 + 13; scored approx. 4-6 weeks after application; 100% = all plants dead
Experimental: as §1, §2, §3, §4

[3] = system: Galium aparine; assay: as above; conditions: Example 1; application rate g of ai/ha: amidosulfuron 15, florasulam 4, A + B 15 + 4; scored approx. 4-6 weeks after application; 100% = all plants dead
Experimental: as §1, §2, §3, §4

[4] = Example 1, application rate g of ai/ha: amidosulfuron 15, florasulam 4, A + B 15 + 4
[5] = Example 2, application rate g of al/ha: amidosulfuron 8, cinidon-ethyl 13, A + B 8 + 13

**Q.** Which results are given for `COc1cc(OC)nc(NC(=O)NS(=O)(=O)N(C)S(C)(=O)=O)n1` [Amidosulfuron, 1-(4,6-dimethoxypyrimidin-2-yl)-3-mesyl-(methyl)-sulfamoylurea]?
**A.** Wheat % damage [1, 4]: 0%; Wheat % damage [1, 5]: 0; Veronica hederifolia % activity [2]: 0%; Galium aparine % activity [3]: 35%

**Q.** `CCOC(=O)/C(Cl)=C/c1cc(N2C(=O)C3=C(CCCC3)C2=O)ccc1Cl` [Cinidon-ethyl, ethyl (Z)-2-chloro-3-[2-chloro-5-(1,2-cyclohex-1-enedicarboximido)phenyl]acrylate] was tested. Which Wheat % damage [1, 5] did it give?
**A.** The Wheat % damage was 0.

**Q.** And the “Veronica hederifolia % activity” value [2]?
**A.** Its value is 15%.

**Q.** With `COc1ncc(F)c2nc(S(=O)(=O)Nc3c(F)cccc3F)nn12` [Florasulam, 2′,6′,8′-trifluoro-5-methoxy[1,2,4]triazolo[1,5-c]pyrimidine-2-sulfanilide] as the compound, how does the Wheat % damage [1, 4] read?
**A.** The Wheat % damage was 1%.

**Q.** And the “Galium aparine % activity” value [3]?
**A.** The value was 45%.
